For assay [1], the system named is MDA-MB-231. The experiment in a line: Inhibition of cell migration in human MDA-MB-231 cells measured after 24 hrs by phase-contrast microscopy based wound healing assay. In kind it is functional.
The target of another assay is T1, Histone deacetylase 7 (Homo sapiens, UniProt Q8WUI4).
T1 sequence (Q8WUI4 whole entry): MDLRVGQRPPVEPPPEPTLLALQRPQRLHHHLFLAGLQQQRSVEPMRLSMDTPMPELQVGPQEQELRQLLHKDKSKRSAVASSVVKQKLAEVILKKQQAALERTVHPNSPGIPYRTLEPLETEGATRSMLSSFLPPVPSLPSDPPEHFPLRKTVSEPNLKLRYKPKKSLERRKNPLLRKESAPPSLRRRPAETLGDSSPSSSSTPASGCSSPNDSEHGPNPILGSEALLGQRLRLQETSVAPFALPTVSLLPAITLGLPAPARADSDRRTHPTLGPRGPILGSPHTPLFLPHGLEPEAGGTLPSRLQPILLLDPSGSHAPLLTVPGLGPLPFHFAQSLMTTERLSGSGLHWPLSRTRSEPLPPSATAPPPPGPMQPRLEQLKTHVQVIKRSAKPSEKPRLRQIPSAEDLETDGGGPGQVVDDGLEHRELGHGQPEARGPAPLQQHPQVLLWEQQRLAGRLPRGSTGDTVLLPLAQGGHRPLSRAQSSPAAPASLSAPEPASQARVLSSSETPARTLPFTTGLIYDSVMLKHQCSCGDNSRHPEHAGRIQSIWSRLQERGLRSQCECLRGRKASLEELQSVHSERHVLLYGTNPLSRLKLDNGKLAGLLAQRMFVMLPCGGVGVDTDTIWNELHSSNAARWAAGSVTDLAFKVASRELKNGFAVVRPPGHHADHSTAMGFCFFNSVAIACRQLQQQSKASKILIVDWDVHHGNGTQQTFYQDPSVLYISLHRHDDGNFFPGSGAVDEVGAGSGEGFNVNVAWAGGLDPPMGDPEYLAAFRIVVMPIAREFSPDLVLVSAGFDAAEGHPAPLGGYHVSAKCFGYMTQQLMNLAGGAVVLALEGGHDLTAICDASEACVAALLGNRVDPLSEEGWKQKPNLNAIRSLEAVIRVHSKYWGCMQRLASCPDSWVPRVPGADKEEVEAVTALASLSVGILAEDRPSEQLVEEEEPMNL
The experiment in a line: Inhibition of HDAC7 (unknown origin) using AcLeu-Gly-Lys(Tfa)-AMC as substrate measured after 30 mins by fluorescence assay.

The target in the next assay is Histone deacetylase 2 (Homo sapiens, UniProt Q92769). The experiment in a line: Inhibition of human full-length C-terminal FLAG-tagged HDAC2 expressed in baculovirus infected Sf9 insect cells using Ac-Leu-Gly-Lys(Ac)-AMC as substrate measured after 30 mins by fluorescence assay. The assay is classed as cell-based.
Histone deacetylase 2, sequence (Q92769 whole entry): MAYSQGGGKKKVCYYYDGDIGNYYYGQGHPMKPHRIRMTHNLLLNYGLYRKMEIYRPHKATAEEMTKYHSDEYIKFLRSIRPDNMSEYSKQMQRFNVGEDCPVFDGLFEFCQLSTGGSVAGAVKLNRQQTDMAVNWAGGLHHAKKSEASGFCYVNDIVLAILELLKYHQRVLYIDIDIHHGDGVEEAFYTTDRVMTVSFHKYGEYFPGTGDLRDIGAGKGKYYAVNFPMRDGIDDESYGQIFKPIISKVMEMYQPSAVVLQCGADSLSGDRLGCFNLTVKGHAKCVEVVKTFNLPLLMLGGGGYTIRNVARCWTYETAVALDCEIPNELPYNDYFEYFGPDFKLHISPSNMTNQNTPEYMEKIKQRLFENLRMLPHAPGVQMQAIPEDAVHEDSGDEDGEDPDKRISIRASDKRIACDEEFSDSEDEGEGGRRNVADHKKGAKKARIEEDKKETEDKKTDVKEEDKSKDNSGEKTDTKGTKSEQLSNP
The target of a further assay is T2, Histone deacetylase 8 (Homo sapiens, UniProt Q9BY41).
T2 sequence (Q9BY41 whole entry): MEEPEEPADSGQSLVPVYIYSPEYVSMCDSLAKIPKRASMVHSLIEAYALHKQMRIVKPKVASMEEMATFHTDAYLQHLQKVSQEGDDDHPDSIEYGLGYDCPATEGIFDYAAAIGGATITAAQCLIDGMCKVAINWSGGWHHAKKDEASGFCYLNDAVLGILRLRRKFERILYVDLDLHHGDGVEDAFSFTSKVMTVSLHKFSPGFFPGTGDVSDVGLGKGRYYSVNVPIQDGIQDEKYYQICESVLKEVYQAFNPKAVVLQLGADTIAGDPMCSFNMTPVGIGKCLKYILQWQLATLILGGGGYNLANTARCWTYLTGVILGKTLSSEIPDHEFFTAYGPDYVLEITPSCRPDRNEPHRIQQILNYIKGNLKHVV
The experiment in a line: Inhibition of recombinant human full-length C-terminal His-tagged HDAC8 expressed in baculovirus infected Sf9 insect cells using Ac-Leu-Gly-Lys(Tfa)-AMC as substrate measured after 30 mins by fluorescence assay.

Assay [2] concerns MDA-MB-231. The experiment in a line: Induction of apoptosis in human MDA-MB-231 cells measured after 24 hrs by Annexin-V/propidium iodide staining based flow cytometry. In kind it is functional, cell-based.
For assay [3], the system named is MDA-MB-231. The experiment in a line: Induction of apoptosis in human MDA-MB-231 cells assessed as necrotic cells at 2.5 uM measured after 24 hrs by Annexin-V/propidium iodide staining based flow cytometry (reference value: 0.22 to 0.46%). In kind it is functional.
The target of assay [4] is T3, Protein deacetylase HDAC6 (Homo sapiens) (UniProt Q9UBN7).
T3 sequence (whole entry): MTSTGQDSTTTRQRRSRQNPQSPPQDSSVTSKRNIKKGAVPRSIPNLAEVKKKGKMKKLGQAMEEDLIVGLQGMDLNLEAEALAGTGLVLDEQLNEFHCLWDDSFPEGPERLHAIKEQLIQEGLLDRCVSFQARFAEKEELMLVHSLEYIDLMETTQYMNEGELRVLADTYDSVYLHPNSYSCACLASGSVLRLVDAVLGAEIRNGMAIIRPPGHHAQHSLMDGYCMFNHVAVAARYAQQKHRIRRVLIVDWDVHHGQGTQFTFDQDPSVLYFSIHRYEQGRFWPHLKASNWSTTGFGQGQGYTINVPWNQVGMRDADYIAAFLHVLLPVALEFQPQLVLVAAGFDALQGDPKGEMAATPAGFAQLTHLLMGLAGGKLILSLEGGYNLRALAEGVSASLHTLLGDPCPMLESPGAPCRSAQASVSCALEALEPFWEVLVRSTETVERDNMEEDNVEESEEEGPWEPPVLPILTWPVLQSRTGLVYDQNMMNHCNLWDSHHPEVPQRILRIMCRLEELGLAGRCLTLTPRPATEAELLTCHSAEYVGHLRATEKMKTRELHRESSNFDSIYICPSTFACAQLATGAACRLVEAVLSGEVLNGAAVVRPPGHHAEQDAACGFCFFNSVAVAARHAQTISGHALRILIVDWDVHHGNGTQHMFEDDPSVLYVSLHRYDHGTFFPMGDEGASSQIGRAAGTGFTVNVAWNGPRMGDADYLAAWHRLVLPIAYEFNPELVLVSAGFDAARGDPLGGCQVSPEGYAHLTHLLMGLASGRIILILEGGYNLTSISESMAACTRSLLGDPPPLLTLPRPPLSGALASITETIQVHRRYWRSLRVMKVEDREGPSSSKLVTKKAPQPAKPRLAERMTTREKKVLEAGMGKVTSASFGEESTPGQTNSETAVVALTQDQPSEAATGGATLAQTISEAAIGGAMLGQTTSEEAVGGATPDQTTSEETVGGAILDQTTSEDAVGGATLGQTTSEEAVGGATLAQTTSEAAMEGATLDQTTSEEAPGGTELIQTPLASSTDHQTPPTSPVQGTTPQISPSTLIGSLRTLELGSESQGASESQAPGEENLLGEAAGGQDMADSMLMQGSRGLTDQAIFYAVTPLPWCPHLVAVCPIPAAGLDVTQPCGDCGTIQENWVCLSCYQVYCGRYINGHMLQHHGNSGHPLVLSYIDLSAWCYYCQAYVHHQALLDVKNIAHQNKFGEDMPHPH
The experiment in a line: Inhibition of HDAC6 in human MDA-MB-231 cells assessed as increase in HSP90 acetylation at 2.5 to 10 uM measured after 24 hrs by Western blot analysis. In kind it is cell-based. As to conditions: dose 2.5-10 µM.

Drawing on ChEMBL document CHEMBL4765420, “Design, synthesis and biological evaluation of novel HDAC inhibitors with improved pharmacokinetic profile in breast cancer” (Eur J Med Chem, 2020), this text covers inhibition, IC50 and Activity for one compound.

The source made the active and inactive calls. No cut-off for these calls is given here. A value given as a limit tells only on which side of the number the result lay.

A word on the IC50: it is the concentration that inhibits the measured activity by half. As to `COc1cc(OC)c2c(N3CCS(=O)(=O)CC3)nc(-c3cc(C)c(OCCCCCC(=O)NO)c(C)c3)nc2c1`, in the assay with MDA-MB-231 [1], the inhibition result is “Dose-dependent effect”. Moreover, the IC50 at Histone deacetylase 7 is above 1000 nM; against Histone deacetylase 2 it was 136 nM; on Histone deacetylase 8, 404 nM. The Activity entry in the assay with MDA-MB-231 [2] is “Dose-dependent effect”; with MDA-MB-231 [3] it was 1.05%. In assay [4], the inhibition entry was “Active”.
